Results reported in the NIST ThermoML archive (doi:10.1016/j.fluid.2016.05.032).
± gives the expanded uncertainty stated by the source.

Details: Liquid, Closed cell (Static) method

With CC(O)COC(C)COC(C)CO (stereo not given) [2-[2-(2-hydroxypropoxy)propoxy]-1-propanol] the “vapor or sublimation pressure” value (350.15 K) was 0.039 ± 0.006 kPa, the “vapor or sublimation pressure” value (357.15 K) was 0.063 ± 0.016 kPa and the “vapor or sublimation pressure” value (364.15 K) was 0.098 ± 0.009 kPa. The “vapor or sublimation pressure” value (371.15 K) was 0.15 ± 0.018 kPa and the “vapor or sublimation pressure” value (378.15 K) was 0.224 ± 0.009 kPa.

In the case of Cc1ccccc1C [1,2-dimethylbenzene], the “vapor or sublimation pressure” value (345.15 K) is reported as 9.182 ± 0.061 kPa, the “vapor or sublimation pressure” value (350.15 K) is reported as 11.27 ± 0.074 kPa and the “vapor or sublimation pressure” value (355.15 K) is reported as 13.73 ± 0.081 kPa. For the same compound, the “vapor or sublimation pressure” value (360.15 K) was 16.62 ± 0.095 kPa and the “vapor or sublimation pressure” value (365.15 K) was 20 ± 0.11 kPa.

With Cc1ccc(C)cc1 [1,4-dimethylbenzene] the “vapor or sublimation pressure” value (345.15 K) was 11.39 ± 0.061 kPa, the “vapor or sublimation pressure” value (350.15 K) was 13.9 ± 0.071 kPa and the “vapor or sublimation pressure” value (355.15 K) was 16.85 ± 0.085 kPa. The “vapor or sublimation pressure” value (360.15 K) was 20.3 ± 0.095 kPa and the “vapor or sublimation pressure” value (365.15 K) was 24.3 ± 0.1 kPa.

With CCc1ccccc1 [ethylbenzene] the “vapor or sublimation pressure” value (320.15 K) was 4.076 ± 0.038 kPa, the “vapor or sublimation pressure” value (326.15 K) was 5.41 ± 0.047 kPa and the “vapor or sublimation pressure” value (332.15 K) was 7.093 ± 0.052 kPa. For the same compound, the “vapor or sublimation pressure” value (338.15 K) was 9.194 ± 0.058 kPa and the “vapor or sublimation pressure” value (344.15 K) was 11.79 ± 0.071 kPa.

For Cc1ccccc1 [toluene], the “vapor or sublimation pressure” value (315.15 K) was 8.622 ± 0.044 kPa, the “vapor or sublimation pressure” value (320.15 K) was 10.77 ± 0.052 kPa and the “vapor or sublimation pressure” value (325.15 K) was 13.34 ± 0.059 kPa. For the same compound, the “vapor or sublimation pressure” value (330.15 K) was 16.4 ± 0.071 kPa and the “vapor or sublimation pressure” value (335.15 K) was 20.02 ± 0.08 kPa.

For Cc1cccc(C)c1 [1,3-dimethylbenzene], the “vapor or sublimation pressure” value (345.15 K) was 11 ± 0.058 kPa, the “vapor or sublimation pressure” value (350.15 K) was 13.44 ± 0.07 kPa and the “vapor or sublimation pressure” value (355.15 K) was 16.32 ± 0.083 kPa. The “vapor or sublimation pressure” value (360.15 K) was 19.68 ± 0.098 kPa and the “vapor or sublimation pressure” value (365.15 K) was 23.59 ± 0.1 kPa.
